Literature values in patent publication US20040242698A1, “Analeptic and antidepressant combinations” (Cephalon Inc., priority 2003, published 2004).

Columns and labels:
[1] = system: non-human primates; conditions: Hernant et al, 1991
[2] = system: English bulldog sleep disordered breathing model; conditions: sleep apnea model; Panckeri et al, 1996
[3] = system: narcoleptic canine; conditions: narcolepsy model; Shelton et al, 1995
[4] = system: cats; conditions: Lin et al., 1992
[5] = system: rats; conditions: Touret et al., 1995, Edgar and Seidel, 1997
[6] = system: canines; conditions: Shelton et al., 1995
[7] = system: major depressive disorder; conditions: at 6 weeks

| SMILES | wakefulness [1] | wakefulness [2] | wakefulness [3] | wakefulness [4] | wakefulness [5] | wakefulness [6] | response [7] |
| --- | --- | --- | --- | --- | --- | --- | --- |
| NC(=O)C[S+]([O-])C(c1ccccc1)c1ccccc1 (stereo not shown) [Modafinil, 2-(benzhydrylsulfinyl) acetamide] | promotes wakefulness | promotes wakefulness | promotes wakefulness | promotes wakefulness | promotes wakefulness | promotes wakefulness | – |
| CNCCC(Oc1ccc(C(F)(F)F)cc1)c1ccccc1 (stereo not shown) [fluoxetine] | – | – | – | – | – | – | about 50% |
